We go through 5 compounds from ChEMBL document CHEMBL1201862, “PubChem BioAssay data set” (2004).

Usually EC50 stands for the midpoint of the concentration-response curve. What is called AC50 is the concentration giving half of the maximal activity seen. What is called IC50 is the concentration that gives 50% inhibition.

Activity calls are given as the source filed them. Cut-off read from the data, not from the text of the source, for most assays here: actives have a measured EC50 and inactives only a lower limit. Where only a bound is given, the exact number is not on record here.

The nature of test [1]: NIH-3T3 fibroblast cytotoxicity, dose response, cytotoxicity control, cell-based, fluorescence, Alamar Blue, secondary assay (AID 2327).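 Note: NIH-3T3 mouse fibroblasts cultured with fluconazole at 8 µg/mL.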 It counts as functional.
Test [2] in a line: Trypanosoma cruzi growth suppression in host cells – NIH3T3 host cells, beta-gal luminescence, confirmation (AID 2044).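 Note: intracellular parasites grown in NIH/3T3 mouse fibroblasts as host cells; luminescent beta-galactosidase reporter signal from transgenic T. cruzi replicating inside host cells; inhibitors lower the luminescence signal.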 It is filed as functional, cell-based.
The target of test [3] is T1, Serine/threonine-protein phosphatase (Candida dubliniensis (strain CD36 / CBS 7987 / NCPF 3949 / NRRLY-17841) (Yeast), UniProt B9W6M3).
T1 sequence (B9W6M3 whole entry): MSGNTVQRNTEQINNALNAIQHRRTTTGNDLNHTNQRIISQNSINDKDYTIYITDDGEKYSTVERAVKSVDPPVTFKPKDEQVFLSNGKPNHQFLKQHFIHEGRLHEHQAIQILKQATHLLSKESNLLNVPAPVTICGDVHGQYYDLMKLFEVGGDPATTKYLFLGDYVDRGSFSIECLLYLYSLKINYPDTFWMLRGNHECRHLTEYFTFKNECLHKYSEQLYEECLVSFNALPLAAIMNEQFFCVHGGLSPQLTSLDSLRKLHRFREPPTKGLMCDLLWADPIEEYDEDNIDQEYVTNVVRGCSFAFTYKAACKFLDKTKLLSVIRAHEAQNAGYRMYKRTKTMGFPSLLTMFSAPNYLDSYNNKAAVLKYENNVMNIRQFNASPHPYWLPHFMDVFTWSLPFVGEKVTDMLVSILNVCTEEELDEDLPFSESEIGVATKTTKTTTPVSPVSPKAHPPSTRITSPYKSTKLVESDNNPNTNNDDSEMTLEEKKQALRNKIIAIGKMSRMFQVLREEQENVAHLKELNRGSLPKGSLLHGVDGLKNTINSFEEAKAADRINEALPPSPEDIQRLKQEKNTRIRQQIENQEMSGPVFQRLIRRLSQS
The experiment in a line: blockers of CaCl2-induced CDRE-lacZ signaling – S. cerevisiae, luminescence, secondary, dose response (AID 2388).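 Note: yeast reporter cells carrying a calcineurin-responsive lacZ construct stimulated with calcium chloride; luminescent beta-galactosidase reporter signal in whole cells rather than isolated phosphatase activity; potency for inhibition where a drop in reporter signal means calcineurin blockade.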 It counts as functional, cell-based.

A short description of test [4]: NIH3T3 cell viability loss – ATP luminescence, mouse fibroblasts, counter-screen, dose response (AID 2010).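 Note: cells exposed to compound for about 90 hours before reading.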 It counts as functional, cell-based. On the technique in general: The purpose of a counterscreen is to sort out artefacts and off-target activity.
Another test deals with HEK293. As to the kind of experiment: EBV LMP1 TES2 canonical NF-kB signalling blockers – cell-based, HEK293, luciferase, cherry-pick, dose response (AID 588343). It is filed as functional. The conditions noted are these: Homo sapiens.
For test [5], the target named is Heat shock protein HSP 90-alpha (Homo sapiens, UniProt P07900). It is filed as functional, organism-based.
The next test has as its system INS1. The experiment in a line: INS-1E survival protection against cytokine death – cell-based, luminescence, retest, dose response (AID 449756).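 Note: cell death triggered by IL-1 beta plus TNF-alpha plus IFN-gamma mixture; protective hits raise ATP signal compared with cytokine alone wells.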 The note with it: Rattus norvegicus. It is filed as functional.
The target of test [6] is T2, Replicative DNA helicase DnaB (Mycobacterium tuberculosis, UniProt P9WMR3).
T2 sequence (P9WMR3 whole entry): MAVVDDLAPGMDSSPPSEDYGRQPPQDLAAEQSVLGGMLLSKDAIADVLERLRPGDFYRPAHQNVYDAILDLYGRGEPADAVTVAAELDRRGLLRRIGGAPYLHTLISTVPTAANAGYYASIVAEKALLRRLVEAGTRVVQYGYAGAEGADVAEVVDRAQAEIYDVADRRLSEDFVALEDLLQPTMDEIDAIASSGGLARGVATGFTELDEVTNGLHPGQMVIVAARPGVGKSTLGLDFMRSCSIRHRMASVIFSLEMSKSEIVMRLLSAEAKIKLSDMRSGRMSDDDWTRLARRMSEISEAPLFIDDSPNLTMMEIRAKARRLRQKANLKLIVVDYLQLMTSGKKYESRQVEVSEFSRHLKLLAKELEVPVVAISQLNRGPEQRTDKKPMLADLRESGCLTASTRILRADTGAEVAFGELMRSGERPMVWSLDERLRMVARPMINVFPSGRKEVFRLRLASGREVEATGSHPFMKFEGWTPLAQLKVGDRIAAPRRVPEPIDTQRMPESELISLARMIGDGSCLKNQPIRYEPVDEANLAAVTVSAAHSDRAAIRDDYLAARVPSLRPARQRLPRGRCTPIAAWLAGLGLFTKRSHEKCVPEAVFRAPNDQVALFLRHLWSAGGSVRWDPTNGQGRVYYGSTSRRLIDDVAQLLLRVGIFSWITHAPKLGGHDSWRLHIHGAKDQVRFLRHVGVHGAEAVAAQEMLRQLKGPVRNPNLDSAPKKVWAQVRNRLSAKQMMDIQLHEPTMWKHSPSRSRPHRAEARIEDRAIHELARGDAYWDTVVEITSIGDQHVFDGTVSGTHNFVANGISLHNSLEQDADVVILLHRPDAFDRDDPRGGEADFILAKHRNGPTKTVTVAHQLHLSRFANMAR
The experiment in a line: DnaB intein splicing inhibitors, dose response, biochemical, cell-free fluorescence (AID 449749). It counts as functional.

The target in the next test is T3, Protein RecA (Mycobacterium tuberculosis, UniProt P9WHJ3).
T3 sequence (P9WHJ3 whole entry): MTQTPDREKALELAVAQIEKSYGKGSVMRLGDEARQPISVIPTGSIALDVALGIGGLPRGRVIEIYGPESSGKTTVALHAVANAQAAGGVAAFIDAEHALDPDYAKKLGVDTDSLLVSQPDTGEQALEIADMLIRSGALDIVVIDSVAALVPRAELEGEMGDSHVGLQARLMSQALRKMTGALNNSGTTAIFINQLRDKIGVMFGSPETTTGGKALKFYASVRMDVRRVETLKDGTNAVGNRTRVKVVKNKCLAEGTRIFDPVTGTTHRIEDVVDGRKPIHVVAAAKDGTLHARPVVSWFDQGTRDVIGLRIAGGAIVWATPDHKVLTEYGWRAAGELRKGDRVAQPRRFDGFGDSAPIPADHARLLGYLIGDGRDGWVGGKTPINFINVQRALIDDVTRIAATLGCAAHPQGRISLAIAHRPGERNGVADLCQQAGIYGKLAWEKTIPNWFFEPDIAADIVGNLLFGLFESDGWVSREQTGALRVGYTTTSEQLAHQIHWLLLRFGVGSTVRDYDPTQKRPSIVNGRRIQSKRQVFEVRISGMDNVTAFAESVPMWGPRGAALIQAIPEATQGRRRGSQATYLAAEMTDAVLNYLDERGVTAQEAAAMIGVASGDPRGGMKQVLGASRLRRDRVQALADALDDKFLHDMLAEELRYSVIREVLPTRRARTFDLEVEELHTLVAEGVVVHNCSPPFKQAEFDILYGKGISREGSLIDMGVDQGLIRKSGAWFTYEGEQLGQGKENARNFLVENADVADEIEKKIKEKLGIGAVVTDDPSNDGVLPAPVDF
The experiment in a line: Fluorescence Cell-Free Homogeneous Dose Retest to Identify Inhibitors of RecA-Intein Splicing Activity. [Related pubchem assays (depositor defined):AID2097, AID2223, AID489010, AID492950]. It is filed as functional.

For test [7], the target named is Tyrosyl-DNA phosphodiesterase 2 (Homo sapiens, UniProt O95551). The experiment in a line: potency against TDP2 phosphodiesterase activity – biochemical, epi absorbance, IC50, dose response (AID 743297).
The subject of test [8] is Streptococcus sp. 'group A'. The experiment in a line: Streptococcus pyogenes SK(-)GAS viability under kanamycin – luminescence, BacTiterGlo, confirmation, counter-screen for streptokinase expression inhibitor project, dose response (AID 1900). It counts as functional, organism-based.
For a further test, the system named is Streptococcus. As to the kind of experiment: GAS UMAA2166 growth inhibition – luminescence, BacTiterGlo, counter-screen for streptokinase expression inhibitor project, dose response (AID 1915).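 Note: potency for reduction of bacterial viability or growth.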 It is filed as functional, organism-based.

Sequence of Tyrosyl-DNA phosphodiesterase 2 (O95551 whole entry): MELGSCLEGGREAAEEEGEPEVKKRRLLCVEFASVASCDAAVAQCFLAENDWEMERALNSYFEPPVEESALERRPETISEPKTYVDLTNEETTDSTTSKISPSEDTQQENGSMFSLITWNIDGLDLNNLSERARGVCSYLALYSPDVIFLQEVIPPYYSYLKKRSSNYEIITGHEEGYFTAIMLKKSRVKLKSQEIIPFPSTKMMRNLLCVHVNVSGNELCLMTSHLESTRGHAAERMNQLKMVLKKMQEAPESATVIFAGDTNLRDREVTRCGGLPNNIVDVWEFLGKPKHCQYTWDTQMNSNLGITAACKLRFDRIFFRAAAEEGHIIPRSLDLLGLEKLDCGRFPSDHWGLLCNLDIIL

Take `CCCCC(=O)NC(c1ccc(Cl)cc1)c1ccc2cccnc2c1O` (stereo not given): the EC50 in test [1] was 16.6 µM (active); in test [2], 0.268 µM (active); in test [3], 24.8 µM (active); in [4], 0.617 µM (active). Moreover, the AC50 in the test on HEK293 was 4.59 µM (active); in [5], 15 µM (active); with INS1, 0.476 µM (active).
Regarding `COc1ccc2noc3c2c1C(=O)c1ccccc1-3`, the AC50 in [6] is 1.18 µM (inconclusive). Also, at Protein RecA, the EC50 is 3.61 µM (active). Besides, in test [7], the IC50 was 65.7 µM (inactive).
On to `O=C(N/N=C/c1ccccc1O)/C(O)=C\C1=NC2(CCCC2)Cc2ccccc21`, for which the EC50 in test [1] was 10.5 µM (active); in test [8] it was 3.18 µM (active); in [3], > 180 µM (inactive); in the test with Streptococcus, 11.2 µM (active). Further, in the test with HEK293, the AC50 is 33.4 µM (active).
Take `CCCCC(=O)NC(c1ccco1)c1cc(Cl)c2cccnc2c1O` (stereo not given): the EC50 is 25 µM (active) in test [1]; 4 µM (active) in test [8]; 1.91 µM (active) in test [2]; > 180 µM (inactive) in [3]; 3.65 µM (active) in test [4]; 8.22 µM (active) in the test on Streptococcus. The AC50 in [5] is 4.37 µM (active); in the test with INS1 it was 2.74 µM (active).
For the compound `CCc1ccc2c(c1)C(NC(C)=O)C(=O)N2CCN1CCOCC1` (stereo not given), the AC50 in test [6] was 22.3 µM (active). The EC50 at Protein RecA is 16.8 µM (active).
